Measurements reported in ChEMBL document CHEMBL1124014, “Synthesis of (aryloxy)alkylamines. 2. Novel imidazo-fused heterocycles with calcium channel blocking and local anesthetic activity” (J Med Chem, 1988).
Activity calls are given as the source filed them. The rule behind the calls is not given here.

Legend:
[1] = tested on: Mus musculus; assay: Concentration causing local anesthetic activity in mice; type: functional, organism-based
[2] = organism: Canis familiaris; assay: Percent inhibition of calcium-dependent potassium-polarized smooth muscle contraction in canine trachea; type: functional, Canis lupus familiaris, Muscle tissue
[3] = target: T1, Voltage-dependent L-type calcium channel subunit alpha-1C (Oryctolagus cuniculus, UniProt P15381); assay: Inhibition of [3H]nitrendipine binding to calcium channels in Rabbit cardiac muscle.; type: tissue-based, Muscle tissue
T1 sequence (P15381 whole entry): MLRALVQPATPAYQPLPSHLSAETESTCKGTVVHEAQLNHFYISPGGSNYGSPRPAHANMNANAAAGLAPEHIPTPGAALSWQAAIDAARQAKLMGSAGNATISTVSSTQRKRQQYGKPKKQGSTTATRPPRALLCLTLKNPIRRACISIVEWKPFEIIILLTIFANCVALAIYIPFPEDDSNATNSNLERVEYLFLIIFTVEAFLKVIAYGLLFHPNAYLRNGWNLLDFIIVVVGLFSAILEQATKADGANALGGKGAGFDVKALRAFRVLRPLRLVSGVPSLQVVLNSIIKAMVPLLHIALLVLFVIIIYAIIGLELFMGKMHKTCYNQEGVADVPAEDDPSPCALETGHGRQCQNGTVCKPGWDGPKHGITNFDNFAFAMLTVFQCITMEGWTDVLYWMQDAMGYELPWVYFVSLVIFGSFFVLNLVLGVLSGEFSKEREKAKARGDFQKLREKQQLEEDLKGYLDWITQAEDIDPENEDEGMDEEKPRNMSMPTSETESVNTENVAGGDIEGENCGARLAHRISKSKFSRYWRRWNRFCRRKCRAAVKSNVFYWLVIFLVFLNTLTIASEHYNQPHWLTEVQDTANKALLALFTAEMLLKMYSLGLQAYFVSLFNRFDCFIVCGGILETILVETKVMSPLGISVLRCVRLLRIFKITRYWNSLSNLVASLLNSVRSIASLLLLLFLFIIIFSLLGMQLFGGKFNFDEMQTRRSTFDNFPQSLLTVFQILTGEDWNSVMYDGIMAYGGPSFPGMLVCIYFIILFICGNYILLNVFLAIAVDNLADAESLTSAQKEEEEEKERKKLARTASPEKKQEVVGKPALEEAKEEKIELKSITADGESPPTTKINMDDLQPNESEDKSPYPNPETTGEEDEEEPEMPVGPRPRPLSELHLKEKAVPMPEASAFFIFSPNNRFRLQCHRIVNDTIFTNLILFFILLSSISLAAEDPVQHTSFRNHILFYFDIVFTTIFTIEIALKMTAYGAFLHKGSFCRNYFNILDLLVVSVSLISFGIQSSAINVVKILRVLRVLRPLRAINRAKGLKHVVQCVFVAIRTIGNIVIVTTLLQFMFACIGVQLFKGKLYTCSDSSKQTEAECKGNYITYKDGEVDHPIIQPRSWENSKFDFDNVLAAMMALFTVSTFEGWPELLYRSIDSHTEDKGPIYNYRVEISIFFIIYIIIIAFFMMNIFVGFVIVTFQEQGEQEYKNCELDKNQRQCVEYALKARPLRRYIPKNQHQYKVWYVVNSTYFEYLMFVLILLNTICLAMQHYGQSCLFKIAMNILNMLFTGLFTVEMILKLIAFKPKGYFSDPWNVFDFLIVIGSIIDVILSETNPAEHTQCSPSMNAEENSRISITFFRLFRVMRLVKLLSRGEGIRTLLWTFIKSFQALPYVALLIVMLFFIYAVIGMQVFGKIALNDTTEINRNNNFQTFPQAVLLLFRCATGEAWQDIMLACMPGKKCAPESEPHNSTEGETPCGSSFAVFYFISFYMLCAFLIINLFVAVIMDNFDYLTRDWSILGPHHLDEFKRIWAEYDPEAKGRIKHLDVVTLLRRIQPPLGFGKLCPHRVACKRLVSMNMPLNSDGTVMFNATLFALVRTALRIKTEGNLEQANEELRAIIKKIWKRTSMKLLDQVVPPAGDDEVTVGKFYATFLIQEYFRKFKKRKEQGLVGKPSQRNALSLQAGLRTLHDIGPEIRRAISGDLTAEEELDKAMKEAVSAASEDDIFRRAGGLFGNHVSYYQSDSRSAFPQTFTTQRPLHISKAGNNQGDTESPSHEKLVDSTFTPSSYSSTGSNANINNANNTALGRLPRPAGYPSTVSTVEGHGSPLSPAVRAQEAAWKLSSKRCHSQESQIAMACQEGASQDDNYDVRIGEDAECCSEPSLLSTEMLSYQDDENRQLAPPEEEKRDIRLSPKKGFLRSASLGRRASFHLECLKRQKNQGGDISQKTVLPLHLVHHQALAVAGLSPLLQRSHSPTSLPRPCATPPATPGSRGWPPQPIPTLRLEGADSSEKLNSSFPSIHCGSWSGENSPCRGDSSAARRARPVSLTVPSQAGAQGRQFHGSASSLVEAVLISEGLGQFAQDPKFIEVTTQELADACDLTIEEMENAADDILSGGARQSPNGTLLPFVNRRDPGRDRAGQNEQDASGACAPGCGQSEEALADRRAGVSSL

[4] = tested on: Mus musculus; assay: Concentration causing local anesthetic activity in mice; inactive; type: functional, organism-based
[5] = Inhibition of [3H]nitrendipine binding to calcium channels of rabbit cardiac muscle at 68 uM; type: functional; conditions: Oryctolagus cuniculus, Muscle tissue
[6] = target: T1, Voltage-dependent L-type calcium channel subunit alpha-1C; assay: Inhibition of [3H]nitrendipine binding to calcium channels of rabbit cardiac muscle at 10 uM; type: functional, tissue-based, Muscle tissue; conditions: probe [3H]nitrendipine

SMILES	Concentration [1]	other results
CCCCN(CCCC)CCCOc1ccc(-c2cn3ccsc3n2)cc1	> 1%	–
Cc1cccn2cc(-c3ccc(OCCCN(C)C)cc3)nc12	1%	–
COc1ccc([C@@H]2Sc3ccccc3N(CCN(C)C)C(=O)[C@@H]2OC(C)=O)cc1 [DILTIAZEM]	–	Inhibition [2]: 96%
Cc1cccn2cc(-c3ccc(OCCCn4ccnc4)cc3)nc12	> 1%	–
CCCCN(CCCC)CCCOc1ccc(-c2cn3c(n2)sc2ccccc23)cc1.Cl.Cl	1%	Inhibition [2]: 15%
CCCCN(CCCC)CCCOc1ccc(-c2cn3cccc(O)c3n2)cc1	0.1%	–
Cc1cccn2cc(-c3ccc(OCCCN4CCOCC4)cc3)nc12	> 1%	–
CCCCN(CCCC)CCCOc1ccc(-c2nc3c(C)cccn3c2C)cc1	0.1%	–
CCCCN(CCCC)CCCOc1ccc(-c2cn3cccc(C)c3n2)cc1C	0.1%	–
CCCCN(CCCC)CCCOc1ccc(C(=O)c2cnc3c(C)cccn23)cc1	0.1%	IC50 [3]: 0.5 µM
CC(C)COCC(CN(Cc1ccccc1)c1ccccc1)N1CCCC1 (stereo not drawn) [BEPRIDIL]	–	IC50 [3]: 22 µM; Inhibition [2]: 81%
CCCCN(CCCC)CCCOc1ccc(C(=O)c2cn3ccc(C)cc3n2)cc1	1%	–
CCCCN(CCCC)CCCOc1ccc(-c2cn3cccc(C)c3n2)cc1OC	0.01%	–
CCCCN(CCCC)CCCOc1ccc(C(=O)c2cnc3ncccn23)cc1.Cl.Cl	–	Concentration [4]: inactive; Inhibition [2]: 44%
CCCCN(CCCC)CCCOc1ccc(-c2cn3c(C)cccc3n2)cc1	0.1%	–
CCCCN(CCCC)CCCOc1ccc(C(=O)c2cn3cc(Br)ccc3n2)cc1.Cl.Cl	1%	Inhibition [2]: 50%
CCCCN(CCCC)CCCOc1ccc(C(=O)c2cnc3nc(C)ccn23)cc1	–	IC50 [3]: 6.1 µM; Concentration [4]: inactive
CCCCN(CCCC)CCCCOc1ccc(-c2cn3cccc(C)c3n2)cc1	1%	–
CCCCN(CCCC)CCCOc1ccc(-c2cn3nccnc3n2)cc1.Cl.Cl	–	Concentration [4]: inactive; Inhibition [2]: 46%
CCCCN(CCCC)CCCOc1ccc(-c2cn3nc(C)sc3n2)cc1	–	Concentration [4]: inactive

SMILES	Concentration [1]	other results
CCCCN(CCCC)CCCOc1ccc(-c2nc3sccn3c2C)cc1	0.1%	–
CCCCN(CCCC)CCCOc1ccc(-c2cn3cccc(C)c3n2)c(C)c1	0.1%	–
CCCCN(CCCC)CCCOc1c(OC)cc(-c2cn3cccc(C)c3n2)cc1OC	0.1%	–
CCCCN(CCCC)CCCOc1ccc(-c2cn3ccc(C)nc3n2)cc1	–	Concentration [4]: inactive
CCCCN(CCCC)CCCOc1ccc(-c2cn3cc(C)ccc3n2)cc1	0.1%	–
COC(=O)C1=C(C)NC(C)=C(C(=O)OC)C1c1ccccc1[N+](=O)[O-] [NIFEDIPINE]	> 1%	Inhibition [2]: 95%
COc1ccc(CCN(C)CCCC(C#N)(c2ccc(OC)c(OC)c2)C(C)C)cc1OC (stereo not drawn)	1%	Inhibition [2]: 93%
CCCCN(CCCC)CCCOc1ccc(-c2cn3cccnc3n2)cc1	> 1%	inhibition at 68 µM [5]: 43%
CCCCN(CCCC)CCCOc1ccc(-c2cn3ccccc3n2)cc1.Cl	0.1%	Inhibition [2]: 5.4%
CCCN(CCC)CCCOc1ccc(-c2cn3cccc(C)c3n2)cc1	0.1%	–
CCCCN(CCCC)CCCOc1ccc(-c2cn3cccc(OCc4ccccc4)c3n2)cc1	0.1%	inhibition at 10 µM [6]: 45%
CCCCCN(CCCCC)CCCOc1ccc(-c2cn3cccc(C)c3n2)cc1	0.1%	–
Cc1cccn2cc(-c3ccc(OCCCN4CCCCC4)cc3)nc12	1%	–
CCCCN(CCCC)CCCOc1ccc(C(=O)c2cn3cccc(C)c3n2)cc1	1%	IC50 [3]: 6 µM
CCN(CC)CC(=O)Nc1c(C)cccc1C	1%	–
CCCCN(CCCC)CCCOc1ccc(-c2cn3ccc(C)cc3n2)cc1	0.1%	–
CCCCN(CCCC)CCCOc1ccc(-c2cn3cccc(C)c3n2)cc1	0.01%	–
CCCCN(CCCC)CCCOc1ccc(C(=O)c2cnc3ccc(Br)cn23)cc1	0.1%	–
CCCCN(CCCC)CCCOc1ccc(-c2cn3cccc([N+](=O)[O-])c3n2)cc1	> 1%	–
CCCCN(CCCC)CCCOc1ccc(-c2cn3cc(Br)ccc3n2)cc1	1%	–
